Biological target: PodA30–162 (Mycolicibacterium fortuitum, UniProt K0V2D8)
Test: X-ray crystal structure, […] Å
Format: binding
Conditions: co-crystal; solvent-exposed active site, stacking with F70

In the case of `Oc1cccc2nc3ccccc3nc12` [1-hydroxyphenazine], the “X-ray crystal structure, 1.8 Å” value is reported as “Crystal formation occurred only in the presence of 1-OH-PHZ, which was visible in a putative”.

Reference: publication PMC5303695 (Science (New York, N.Y.), 2016)
